Source: US20250275959A1, “COMPOUNDS AND METHODS OF THEIR USE” (LEXICON PHARMACEUTICALS, INC., priority 2024, published 2025)

Assay: Murine diet-induced obesity (DIO) model, Compounds B-D study
Assay type: in vivo, C57BL/6J mice
Conditions: DIO mice
Experimental: The effects of four representative compounds of the invention were tested in a mouse model of diet-induced obesity (DIO): • Compound A is (R)—N-(tert-butylsulfonyl)-4-(1-(5-(pyridin-3-yloxy)pyridin-2-yl)ethoxy)-3-(trifluoromethyl)benzamide; • Compound B is (R)-4-(1-(5-(cyclopropylmethoxy)pyridin-2-yl)propoxy)-N-((4-(2-(dimethylamino)ethoxy)phenyl)sulfonyl)-2,3-difluorobenzamide; • Compound C is (R)—N-((4-(2-(dimethylamino)ethoxy)piperidin-1l-yl)sulfonyl)-2,3-difluoro-4-(1-(5-(pyridin-2-yloxy)pyridin-2-yl)propoxy)benzamide; and • Compound D is (R)-2,3-difluoro-N-((4-methylpiperazin-1-yl)sulfonyl)-4-(1-(5-(pyridin-2-yloxy)pyridin-2-yl)propoxy)benzamide.
The mice used in these experiments were C57BL/6J mice fed a high-fat diet (D12492 from Research Diets) ad libitum during the study period. The vehicle and test article formulations were 10% w/v Solutol in water.
In this study, three compounds tested at 30 mg/kg were compared against vehicle control over a month. After their acclimation period, DIO mice were equally divided into groups of ten mice each based on body weight. The animals were pre-dosed for three days prior to formal dosing (once per day treatment every group), as well as weight and food intake were recorded from Day −2 onwards. From Day 1 to Day 27, the animals in the dosing group were administered orally by gavage at 5:00 p.m. every day. All animals were fasted overnight after dosing on Day 28 and Day 29. Then the blood (retro-orbital bleed) of mice from each group was collected at 7:00 a.m. to separate out the serum for measuring total cholesterol levels (TC), triglyceride (TG), aminotransferase alanine (ALT), aspartate aminotransferase (AST) and total bilirubin (TBil) levels on Day 29. On day 30, all animals were performed OGTT test (0 min, 15 min, 30 min, 60 min, 90 min and 120 min) and measured insulin levels (0 min, 15 min, 30 min and 60 min). On day 32, all animals were injected insulin after 4 hours fasting, then performed ITT test (0 min, 15 min, 30 min, 60 min and 90 min). On day 33, Epididymal white adipose tissue (eWAT), jejunum, liver, heart and brain were collected; eWAT, liver and heart weights were recorded. All of the adipose tissue in the abdominal cavity was collected and weighted, and the fatty tissue coefficient (body fat ratio) was calculated and then stored at −80° C. for inspection.
• 1. Body weight and Food Consumption: Pre-dose every day from Day −2 onwards. • 2. Day −2,—1 and Day 0: Handle mice and gavage with vehicle. • 3. Day 1˜27: Dose˜5:00 PM. • 4. Day 28: Dose˜5:00 PM. Fast overnight. • 5. Day 29: Determine total cholesterol levels and triglyceride, ALT, AST, total bilirubin levels˜7:00 AM. Resume feeding. • 6. Day 29: Dose˜5:00 PM. Fast overnight. • 7. Day 30: (No drug administration) Oral glucose tolerance test (OGTT) with glucose levels measured at Pre-dose, 15 min, 30 min, 60 min, 90 min and 120 min after the glucose challenge. And insulin levels will be test at time 0 min, 15 min, 30 min and 60 min after the glucose challenge. • 8. Day 30˜31: Dose˜5:00 PM. • 9. Day 32: (No drug administration) ITT test (two days after the OGTT test): Fast 4 h. After insulin injection, the levels of glucose will be measured at Pre-dose, 15 min, 30 min, 60 min and 90 min. • 10. After the ITT test. Collect serum with a terminal bleed from all 50 mice. • 11. Collect epidydimal WAT (eWAT) pad, jejunum, liver, heart, and brain. • 12. Record eWAT, liver, and heart weights. • 13. Before freezing tissue/serum: • (i) Assess Drug Concentration; serum, liver, eWAT, heart, jujenum, and brain. (25 serum samples; 5 mice/group will progress to biomarker study and remaining 25 serum samples saved for future analysis). • 14. Prepare liver, heart and eWAT tissue for histopathology analysis. • (ii) Liver for all 50 mice; HE staining to assess liver steatosis. • (iii) Heart or all 50 mice; HE and DAPI staining to assess cardiac morphology. […]

CC[C@@H](Oc1ccc(C(=O)NS(=O)(=O)N2CCN(C)CC2)c(F)c1F)c1ccc(Oc2ccccn2)cn1 [Compound D, (R)-2,3-difluoro-N-((4-methylpiperazin-1-yl)sulfonyl)-4-(1-(5-(pyridin-2-yloxy)pyridin-2-yl)propoxy)benzamide]
mean body weight versus control group (30 mg/kg oral daily): significantly lower than that of the control group from Day 15 to the end | overall food consumption versus control group (30 mg/kg oral daily): significantly lower than that of the control group | Body Weight (g)/Day (30 mg/kg oral daily, Day 1): 44.9 ± 4.3 g | Body Weight (g)/Day (30 mg/kg oral daily, Day 2): 44.3 ± 4 g | Body Weight (g)/Day (30 mg/kg oral daily, Day 3): 43.6 ± 3.9 g | Body Weight (g)/Day (30 mg/kg oral daily, Day 4): 43.7 ± 3.8 g | Body Weight (g)/Day (30 mg/kg oral daily, Day 5): 43.7 ± 3.6 g | Body Weight (g)/Day (30 mg/kg oral daily, Day 6): 43.5 ± 3.6 g | Body Weight (g)/Day (30 mg/kg oral daily, Day 7): 43.4 ± 3.5 g | Body Weight (g)/Day (30 mg/kg oral daily, Day 8): 43.7 ± 3.6 g | Body Weight (g)/Day (30 mg/kg oral daily, Day 9): 43.5 ± 3.6 g | Body Weight (g)/Day (30 mg/kg oral daily, Day 10): 43.3 ± 3.5 g | Body Weight (g)/Day (30 mg/kg oral daily, Day 11): 42.9 ± 3.4 g | Body Weight (g)/Day (30 mg/kg oral daily, Day 12): 42.6 ± 3.4 g | Body Weight (g)/Day (30 mg/kg oral daily, Day 13): 42.3 ± 3.4 g | Body Weight (g)/Day (30 mg/kg oral daily, Day 14): 42.3 ± 3.3 g | Body Weight (g)/Day (30 mg/kg oral daily, Day 15): 42.4 ± 3.2 g | Body Weight (g)/Day (30 mg/kg oral daily, Day 16): 42.3 ± 3.2 g | Body Weight (g)/Day (30 mg/kg oral daily, Day 17): 42.1 ± 3.4 g | Body Weight (g)/Day (30 mg/kg oral daily, Day 18): 42.2 ± 3.4 g | Body Weight (g)/Day (30 mg/kg oral daily, Day 19): 42.3 ± 3.5 g | Body Weight (g)/Day (30 mg/kg oral daily, Day 20): 42.3 ± 3.6 g | Body Weight (g)/Day (30 mg/kg oral daily, Day 21): 42.3 ± 3.6 g | Body Weight (g)/Day (30 mg/kg oral daily, Day 22): 42.3 ± 3.7 g | Body Weight (g)/Day (30 mg/kg oral daily, Day 23): 42.3 ± 3.7 g | Body Weight (g)/Day (30 mg/kg oral daily, Day 24): 42.2 ± 3.8 g | Body Weight (g)/Day (30 mg/kg oral daily, Day 25): 42.4 ± 3.4 g | Body Weight (g)/Day (30 mg/kg oral daily, Day 26): 42.5 ± 3.5 g | Body Weight (g)/Day (30 mg/kg oral daily, Day 27): 42.5 ± 3.7 g | Body Weight (g)/Day (30 mg/kg oral daily, Day 28): 42.5 ± 3.9 g | Body Weight (g)/Day (30 mg/kg oral daily, Day 29): 41.8 ± 3.8 g | Body Weight (g)/Day (30 mg/kg oral daily, Day 30): 39.5 ± 3.6 g | Body Weight (g)/Day (30 mg/kg oral daily, Day 31): 39.7 ± 3.9 g | Body Weight (g)/Day (30 mg/kg oral daily, Day 32): 38.9 ± 3.8 g | Body Weight (g)/Day (30 mg/kg, Day 0 (pre-dose)): 44.9 ± 4.3 g | eWAT coefficient versus control group (30 mg/kg, Day 33): slightly lower than that of the control group | eWAT weights versus control group (30 mg/kg, Day 33): significantly lower than that of the control group | Body Weight (g)/Day (30 mg/kg, Day −1 (pre-dose)): 44.8 ± 4.1 g | Body Weight (g)/Day (30 mg/kg, Day −2 (pre-dose)): 44.9 ± 4.1 g | mean adipose weights versus control group (30 mg/kg, abdominal adipose tissue): significantly lower than that of the control group | ITT blood glucose versus control group (Day 32, at 15, 30, 60 and 90 minutes after insulin): significantly lower than that of the control group
